Data from article PMC2703631, “Identification of non-muscle myosin heavy chain as a substrate for Cdk5 and tool for drug screening” (Journal of Biomedical Science, 2009).

Tests used:
[1] = test system: Cdk5/p25 transfected HEK293 cells; assay: NMHC-B (pSerCdk substrate) phosphorylation by Western blot in Cdk5/p25 transfected HEK293 cells; type: cell-based, human; details: for IC50: Homo sapiens, 4 hours treatment, Western blot, read-out: IC50, inhibition of pSerCdk substrate (NMHC-B) phosphorylation
Method: (§1) The inhibition curves were analysed by non-linear regression using Graph Pad Prism.

[2] = molecular target: recombinant human Cdk5/p25 (Homo sapiens, UniProt Q00535); assay: Scintillation Proximity Assay (SPA), peptide substrate phosphorylation; type: biochemical; details: recombinant human Cdk5/p25 3.3 nM, 2 μM ATP, biotinylated peptide substrate; read-out: IC50, inhibition of peptide substrate phosphorylation in SPA assay
recombinant human Cdk5/p25, sequence (Q00535 whole entry): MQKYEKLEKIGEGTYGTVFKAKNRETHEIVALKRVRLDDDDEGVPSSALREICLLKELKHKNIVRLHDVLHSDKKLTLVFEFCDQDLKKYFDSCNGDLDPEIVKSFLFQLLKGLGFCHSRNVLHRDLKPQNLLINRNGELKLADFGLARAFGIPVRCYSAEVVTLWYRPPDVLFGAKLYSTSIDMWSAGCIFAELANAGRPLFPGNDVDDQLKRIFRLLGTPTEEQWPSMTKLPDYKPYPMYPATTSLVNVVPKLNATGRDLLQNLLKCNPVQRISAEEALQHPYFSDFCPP
recombinant human Cdk5/p25, sequence (Q15078 99-307 partner limits assumed): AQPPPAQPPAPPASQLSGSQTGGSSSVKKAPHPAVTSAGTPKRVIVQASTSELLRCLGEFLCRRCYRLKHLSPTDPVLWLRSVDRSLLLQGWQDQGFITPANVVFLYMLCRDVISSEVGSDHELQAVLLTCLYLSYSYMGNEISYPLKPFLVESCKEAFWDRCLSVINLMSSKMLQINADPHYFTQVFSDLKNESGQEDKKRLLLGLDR
Method: as §1
This biochemical assay measures inhibition of the recombinant human Cdk5/p25 protein kinase by different compounds with a synthetic peptide as a substrate.

[3] = Solubility (remark in discussion); type: physicochemical; details: stated as likely cause of precipitation at higher concentrations
[4] = test system: human neuroblastoma SH-SY5Y cells; assay: pSerCdk substrate (NMHC-B) phosphorylation by Western blot in SH-SY5Y cells; type: cell-based; details: undifferentiated and RA-differentiated SH-SY5Y cells, 10 μM, 4 hours
Method: SH-SY5Y cells were grown in medium with equal amount of Minimum Essential Medium (MEM, InVitrogen, Sweden) and Nutrient Mixture Ham's F-12 (InVitrogen, Sweden), supplemented with 1% non-essential amino acids and with heat-inactivated FCS. Cells were plated at a density of 4.0 × 10^4 cells/cm^2 in 6-well culture dishes using cell medium with 10% FCS. For differentiation, the cells were treated 6 days with 10 μM all-trans-retinoic acid (RA, Sigma, Sweden) in the medium containing 1% FCS. In some experiments the cells were left undifferentiated and these cells were cultured in medium containing 10% FCS. […]
HEK293 cells were lysed in buffer containing 10 mM Tris-HCl pH 7.2, 150 mM NaCl, 2 mM EDTA, 50 mM NaF, 1 mM Na3O4V, 0.5% NP-40 and 1 complete protease inhibitor cocktail tablet (Roche Diagnostics Scandinavia AB, Sweden)/10 ml buffer. […] The protein content in the supernatants was measured using BCA Protein Assay kit (Pierce Biotechnology, Rockford, IL, USA). […] Average density of the bands was measured in Fluor-S™MultiImager (Bio-Rad Laboratories AB, Sweden) by using Quantity One software. The inhibition curves were analysed by non-linear regression using Graph Pad Prism.
We also investigated NMHC-B phosphorylation by Cdk5 in human neuroblastoma SH-SY5Y cells. […] Verification that the 200 kDa pSerCdk band detected in SH-SY5Y cells was in fact NMHC-B was done by immunoprecipitation.

Row | IC50 [2] | solubility [3] | Structure (SMILES) | inhibition of pSerCdk substrate phosphorylation ([1]; data not shown) | IC50 [1] | phosphorylation of 200 kDa pSerCdk substrate band [4]
1 |  |  | Cc1c(C(=O)c2ccc(Cl)cc2)cc(C(C)(C)C)c(O)c1C(=O)O [5-(4-chlorobenzoyl)-2-hydroxy-6-methyl-3-tert-butyl-benzoic acid] | did not show inhibition |  | 
2 | 0.355 µM | poor solubility | NS(=O)(=O)c1cc(-c2nc3ccc(Cl)cc3s2)cs1 [AZ compound, 4-(6-chlorobenzothiazol-2-yl)thiophene-2-sulfonamide] |  | 4.36 µM | 
3 |  |  | CC[C@H](CO)Nc1nc(NCc2ccccc2)c2ncn(C(C)C)c2n1 [Roscovitine] |  |  | completely inhibited
4 | 0.045 µM |  | CCn1c(=O)ccc2cnc(Nc3ccc(F)cc3)nc21 [WL compound, 7-ethyl-4-[(4-fluorophenyl)amino]-3,5,7-triaza bicyclo [4.4.0.] deca-1,3,5,9-tetraen-8-one] |  | 2.55 µM | 
